Measurements reported in patent publication US6166004A, “Combinations of HIV protease inhibitors with reverse transcriptase inhibitors” (Novartis Finance Corporation, priority 1996, dated 2000).

Legend:
[1] = system: HIV-1 (pNL4-3 clone) in HeLaT4 cells; experiment: Transient DNA transfection assay in HeLaT4 cells (HIV clone pNL4-3), potency; format: cell-based; details: transfection system
Excerpt: (§1) Inhibitor-resistant HIV-1 protease variants are cloned as follows:
(§2) By way of PCR-supported mutagenesis and cloning, HIV-1 protease mutants are generated that are based on the infectious clone pNL4-3 (freely available via the "NIH AIDS reference and reagent program", the original reference is A. Adachi et al. J. Virol (1986) 59, 284-91--but it can, of course, be any other HIV clone, or even clinical material, provided that comparability is ensured). […] The cloned fragments are, for example, only 500 base pairs in length, all of the remainder being unchanged. By using mutations in always the same clone, direct comparability is ensured, which would not be the case in a direct comparison of clinical samples or of different HIV clones.
(§3) That system is used as a transient DNA transfection system for tests:
(§4) 1) in order to identify possible cross-resistances of protease variants to several protease inhibitors; and
(§5) 2) in order to establish the potency and resistance profile of novel inhibitor candidates.
(§6) Instead of the strains mentioned, there may be used any human T4-positive cells, such as the HeLaT4 cells, deposited under that name by Richard Axel and Paul Maddon in "NIH AIDS reference and reagent program" and obtainable via that source.

[2] = system: HIV-1 protease resistant variant (451/76F strain)
Excerpt: as §1, §2, §3, §4, §5, §6

[3] = system: 46I/47V/50V (VX478) strain; experiment: Transient DNA transfection assay, resistant strain 46I/47V/50V (VX478); format: cell-based, HIV-1; details: 10 nM, not quantified
Excerpt: as §1, §2, §3, §4, §5, §6

In the case of COC(=O)N[C@H](C(=O)N[C@@H](Cc1ccccc1)[C@@H](O)CN(Cc1ccc(-c2ccccn2)cc1)NC(=O)[C@@H](NC(=O)OC)C(C)(C)C)C(C)(C)C [Example 46, 1-[4-(Pyridin-2-yl)-phenyl]-4(S)-hydroxy-5(S)-2,5-bis[N-(N-methoxycarbonyl-(L)-tert-leucyl)amino]-6-phenyl-2-azahexane], the “in vitro potency compared with saquinavir” value [1] is reported as “in practical terms better than that of saquinavir”, the “activity against resistant variant compared with other protease inhibitors” value [2] is reported as “comparable with saquinavir and better than that of indinavir (Merck & Co., Inc., see below) or ritonavir” and the “activity compared with saquinavir, ritonavir and indinavir” value [3] is reported as “more potent (not quantified) than that of saquinavir, ritonavir and indinavir”.
